US8299064B2, “Fused polycyclic compounds having a heterocyclic ring(s) and pharmaceutical use thereof” (priority 2003, dated 2012)

Tested on: adipose cells of rats
Experiment: Evaluation of the sugar transporting capacity (2-[14C(U)]-deoxy-D-glucose incorporation)
Type: cell-based
Settings: insulin 100 nM; isolated rat adipose cells
Description: After the decapitation and venesection of 6 male Wistar rats (body weight: 150 to 200 g), an incision was made in the abdomen of each rat to extract 6 g in total of epididymal adipose tissues. The tissues were finely cut into 2 mm×2 mm pieces in 6 ml of KRH (Krebs-Ringer Hepes, composition: 130 mM of sodium chloride, 4.7 mM of potassium chloride, 1.2 mM of potassium dihydrogenphosphate, 1.2 mM of magnesium sulfate, 1 mM of calcium chloride and 25 mM of Hepes, pH=7.6) containing 5% of BSA (bovine serum albumin). 24 mg of collagenase (type I) was added thereto and the digestion treatment was conducted for about 40 minutes to obtain about 6 ml of isolated adipose cells. The collagenase was removed by the buffer exchange. 2% BSA/KRH solution was added to the residue for the re-suspension to obtain 45 ml of an adipose cell suspension.
The sugar transporting capacity of the compound of the present invention was evaluated with reference to a method described in a literature [Annual Review of Biochemistry, Vol. 55, p. 1059 (1986)]. […]
The sugar transporting capacity was evaluated by measuring the quantity of 2-[^14C(U)]-deoxy-D-glucose incorporated per a unit time. […] The quantity of 2-[^14C(U)]-deoxy-D-glucose contained in the adipose cell layer was determined with a liquid scintillation counter to determine the quantity of the incorporated sugar. […]

insulin
effect of increasing the sugar-transporting capacity versus insulin-free control group: about 7 times
